Measurements reported in patent US9101671B2, “Methods and compositions related to clot binding compounds” (Sanford-Burnham Medical Research Institute, priority 2007, dated 2015).
Where no end group is shown, it is not given here. fluorescent dye = not defined here

Tests used:
mouse plasma clots = assay: Nanoparticle binding to mouse plasma clots in vitro
Protocol: (§1) Phage binding to clotted plasma proteins was determined as described (Pilch 2006). CREKA-SPIO and control SPIO were added to freshly formed plasma clots in the presence or absence of free CREKA peptide. After 10 min incubation, the clots were washed 4 times in PBS, transferred to a new tube and digested in 100 μl concentrated nitric acid. The digested material was diluted in 2 ml distilled water and the iron concentration was determined using inductively coupled plasma-optical emission spectroscopy (ICP-OES, PerkinElmer, Norwalk, Conn.).

PyMT tumors = assay: Tumor homing of intravenously injected fluorescent CREKA peptide in MMTV-PyMT mice; type: in vivo; conditions: intravenous injection; minutes to hours after the injection; fluorescent dye at N-terminus
Protocol: (§2) (A). Balb/c nude mice bearing MDA-MB-435 human breast cancer xenograft tumors or transgenic MMTV PyMT mice with breast tumors were intravenously injected with 0.1 mg of fluorescein-CREKA. The animals were sacrificed by perfusion 24 hours post-injection and tissue sections were examined by fluorescent microscopy. Right panel, control organs of MDA-MB 435 tumor mice. Magnification 200×. (B). Whole animal imaging of MDA-MB-435 tumor mouse injected 6 hours earlier with 30 μg of Alexa Fluor 647-labeled CREKA. Maestro imaging system (Cambridge Research Inc., Woburn, Mass.) was used to acquire and process the image. The arrow points to the tumor and the arrowhead to the urinary bladder.
A tumor-homing peptide was used to construct targeted nanoparticles. […] The most frequently represented peptide sequence in the selected phage preparation was CREKA (cys-arg-glu-lys-ala; SEQ ID NO:1). The CREKA peptide was synthesized with a fluorescent dye attached to the N-terminus and the in vivo distribution of the peptide was studied in tumor-bearing mice. […] The peptide formed a distinct meshwork in the tumor stroma (FIG. 5), and it also highlighted the blood vessels in the tumors. […]

[1] = test system: MDA-MB-435 human breast cancer xenografts; assay: Tumor homing of intravenously injected fluorescent CREKA peptide in MDA-MB-435 xenograft mice; type: in vivo
Protocol: as §2
A tumor-homing peptide was used to construct targeted nanoparticles. […] The most frequently represented peptide sequence in the selected phage preparation was CREKA (cys-arg-glu-lys-ala; SEQ ID NO:1). The CREKA peptide was synthesized with a fluorescent dye attached to the N-terminus and the in vivo distribution of the peptide was studied in tumor-bearing mice. […] The peptide formed a distinct meshwork in the tumor stroma (FIG. 5), and it also highlighted the blood vessels in the tumors.
In vivo screening of a peptide library with the general structure of CX7C (SEQ ID NO: 4), where C is cysteine and X is any amino acid, was carried out as described (Oh 2004) using 65- to 75-day-old transgenic MMTV PyMT mice (Hutchinson 2000). These mice express the polyoma virus middle T antigen (MT) under the transcriptional control of the mouse mammary tumor virus (MMTV), leading to the induction of multi-focal mammary tumors in 100% of carriers. MDA-MB-435 tumors in nude mice and peptide synthesis have been described (Laakkonen 2002; Laakkonen 2004). B16F1 murine melanoma tumors were grown in fibrinogen null mice (Suh 1995) and their normal littermates and used when they reached 0.5-1 cm in size (Pilch 2006).

B16F1 melanomas = assay: CREKA peptide homing to B16F1 melanomas in fibrinogen null mice and normal littermates; type: in vivo; conditions: intravenous injection
Protocol: Fluorescein-conjugated CREKA peptide (200 μg per mouse) was injected into mice bearing syngeneic B16 melanoma tumors. Representative microscopic fields are shown to illustrate homing of fluorescein-CREKA to fibrin-like structures in tumors in wild type mice (A, arrow) and lack of homing in fibrinogen null mice (B). […] (D) Dextran-coated iron oxide nanoparticles conjugated with fluorescein-CREKA bind to clotted plasma proteins, and the binding is inhibited by free CREKA peptide. […] Magnification: A-B, 200×; D, 600×.
Tumors contain a meshwork of clotted plasma proteins in the tumor stroma and the walls of vessels, but no such meshwork is detectable in normal tissues (Dvorak 1985; Abe 1999; Pilch 2006). The mesh-like pattern produced by the CREKA peptide in tumors prompted the study of whether clotted plasma proteins can be the target of this peptide. The peptide was tested in fibrinogen knockout mice, which lack the fibrin meshwork in their tumors. […] Its structure makes it an attractive peptide to use in nanoparticle targeting because, unlike other clot-binding peptides, which are cyclic 10 amino-acid peptides (Pilch 2006), CREKA is linear and contains only 5 amino acids. Moreover, the sulfhydryl group of the single cysteine residue is not required to provide binding activity and can be used to couple the peptide to other moieties. […]

human plasma clots = assay: Nanoparticle binding to human plasma clots in vitro
Protocol: as §1

cys-arg-glu-lys-ala ({fluorescent dye}-CREKA; reading uncertain; also: dye not identified, printed as cys-arg-glu-lys-ala) [CREKA peptide, studied in vivo with a fluorescent dye attached to the N-terminus]
effect of free peptide on CREKA-SPIO binding to plasma clots (mouse plasma clots): inhibited
peptide detection in tumors (PyMT tumors): readily detectable
peptide detection in tumors ([1]; intravenous injection, minutes to hours after the injection, fluorescent dye at N-terminus): readily detectable
peptide detection in normal tissues ([1]; intravenous injection, tumor-bearing mice): essentially undetectable
whole body imaging, peptide accumulation ([1]; peptide labeled with Alexa 647, 6 hours after injection of 30 μg): peptide accumulation in the breast cancer xenografts, and in the bladder
peptide accumulation in tumors (B16F1 melanomas; fibrinogen null mice): failed to accumulate
peptide accumulation in tumors (B16F1 melanomas; normal littermates of the null mice): formed a brightly fluorescent meshwork
effect of free peptide on CREKA-SPIO binding to plasma clots (human plasma clots): inhibited
